The text below walks through data of patent publication EP1733725B2, “Pharmaceutical solution comprising ritonavir, a solvent (long chain fatty acid) and water” (ABBOTT LABORATORIES, priority 1999, dated 2000).

Each structure is given as a SMILES string. Like-named read-outs stand apart in the source and are kept apart here.

This series in a line: oral bioavailability in dogs. It counts as in vivo, beagle dogs. The following applies: dog, 5 mg/kg. As to the method:
Protocol for Oral Bioavailability
Dogs (beagle dogs, mixed sexes, weighing 7-14 kg) were fasted overnight prior to dosing, but were permitted water ad libitum. Each dog received a 100 µg/kg subcutaneous dose of histamine approximately 30 minutes prior to dosing. Each dog received a single dosage form corresponding to a 5 mg/kg dose of the drug. The dose was followed by approximately 10 milliliters of water. Blood samples were obtained from each animal prior to dosing and 0.25, 0.5, 1.0, 1.5, 2, 3, 4, 6, 8, 10, and 12 hours after drug administration. The plasma was separated from the red cells by centrifugation and frozen (-30 °C) until analysis. Concentrations of parent drug were determined by reverse phase HPLC with low wavelength UV detection following liquid-liquid extraction of the plasma samples. The parent drug area under the curve was calculated by the trapezoidal method over the time course of the study. The absolute bioavailability of each test composition as calculated by comparing the area under the curve after oral dosing to that obtained from a single intravenous dose. Each capsule or capsule composition was evaluated in a group containing at least six dogs; the values reported are averages for each group of dogs.

By bioavailability is commonly meant dose-corrected exposure relative to a reference, in per cent. On to `CC(C)c1nc(CN(C)C(=O)NC(C(=O)NC(Cc2ccccc2)CC(O)C(Cc2ccccc2)NC(=O)OCc2cncs2)C(C)C)cs1` (stereo not drawn) [bistosylate], for which the bioavailability (in vivo, administered as an unformulated solid in a capsule dosage form, 5 mg/kg oral dose in dogs, read-out: bioavailability) is < 2%. As to `CC(C)c1nc(CN(C)C(=O)N[C@H](C(=O)N[C@@H](Cc2ccccc2)C[C@H](O)[C@H](Cc2ccccc2)NC(=O)OCc2cncs2)C(C)C)cs1` [compound of formula III], the bioavailability runs as follows: (both sexes, beagle, plasma, administered as an unformulated solid in a capsule dosage form, 5 mg/kg oral dose in dogs, read-out: bioavailability) < 2%; (both sexes, beagle, plasma, solution in pharmaceutically acceptable organic solvents with long chain fatty acid, as encapsulated dosage form (soft elastic capsules or hard gelatin capsules), printed 'as high as about 60% or more', read-out: oral bioavailability) ~60%.
